Measurements as given in ChEMBL document CHEMBL5724914, “Linking interpersonal differences in gut microbiota composition and drug biotransformation activity” (2024).

How the values were obtained:
[1] = human gut metagenome, 24 h, 2 µM
[2] = The drug is tested on WLS-038 corresponding to human gut metagenome with ENA study accession number: PRJEB37062 and ENA sample accession number: ERS12561745 for biotransformation under anaerobic condition. The drug concentrations were measured over 9 timepoints collected between 0 and 24 hours of incubation by liquid-chromatography-coupled mass spectrometry (LC–MS); settings: 2 µM
[3] = human gut metagenome, 24 h, 2 µM; remark: listed apart in the source
[4] = The drug is tested on WLS-310 corresponding to human gut metagenome with ENA study accession number: PRJEB37062 and ENA sample accession number: ERS12561785 for biotransformation under anaerobic condition. The drug concentrations were measured over 9 timepoints collected between 0 and 24 hours of incubation by liquid-chromatography-coupled mass spectrometry (LC–MS); settings: 2 µM
[5] = human gut metagenome, 24 h, 2 µM; remark: listed apart in the source
[6] = The drug is tested on Z-009 corresponding to pig gut metagenome with ENA study accession number: PRJEB37062 and ENA sample accession number: ERS12561809 for biotransformation under anaerobic condition. The drug concentrations were measured over 9 timepoints collected between 0 and 24 hours of incubation by liquid-chromatography-coupled mass spectrometry (LC–MS); settings: 2 µM
[7] = The drug is tested on Z-023 corresponding to metagenome with ENA study accession number: PRJEB37062 and ENA sample accession number: ERS12561822 for biotransformation under anaerobic condition. The drug concentrations were measured over 9 timepoints collected between 0 and 24 hours of incubation by liquid-chromatography-coupled mass spectrometry (LC–MS); settings: 2 µM
[8] = The drug is tested on WLS-090 corresponding to human gut metagenome with ENA study accession number: PRJEB37062 and ENA sample accession number: ERS12561753 for biotransformation under anaerobic condition. The drug concentrations were measured over 9 timepoints collected between 0 and 24 hours of incubation by liquid-chromatography-coupled mass spectrometry (LC–MS); settings: 2 µM
[9] = The drug is tested on Z-021 corresponding to metagenome with ENA study accession number: PRJEB37062 and ENA sample accession number: ERS12561820 for biotransformation under anaerobic condition. The drug concentrations were measured over 9 timepoints collected between 0 and 24 hours of incubation by liquid-chromatography-coupled mass spectrometry (LC–MS); settings: 2 µM
[10] = human gut metagenome, 24 h, 2 µM; remark: listed apart in the source
[11] = The drug is tested on Z-010 corresponding to metagenome with ENA study accession number: PRJEB37062 and ENA sample accession number: ERS12561810 for biotransformation under anaerobic condition. The drug concentrations were measured over 9 timepoints collected between 0 and 24 hours of incubation by liquid-chromatography-coupled mass spectrometry (LC–MS); settings: 2 µM
[12] = human gut metagenome, 24 h, 2 µM; remark: listed apart in the source
[13] = The drug is tested on Z-024 corresponding to pig gut metagenome with ENA study accession number: PRJEB37062 and ENA sample accession number: ERS12561823 for biotransformation under anaerobic condition. The drug concentrations were measured over 9 timepoints collected between 0 and 24 hours of incubation by liquid-chromatography-coupled mass spectrometry (LC–MS); settings: 2 µM
[14] = The drug is tested on Z-026 corresponding to metagenome with ENA study accession number: PRJEB37062 and ENA sample accession number: ERS12561825 for biotransformation under anaerobic condition. The drug concentrations were measured over 9 timepoints collected between 0 and 24 hours of incubation by liquid-chromatography-coupled mass spectrometry (LC–MS); settings: 2 µM
[15] = The drug is tested on Z-018 corresponding to pig gut metagenome with ENA study accession number: PRJEB37062 and ENA sample accession number: ERS12561817 for biotransformation under anaerobic condition. The drug concentrations were measured over 9 timepoints collected between 0 and 24 hours of incubation by liquid-chromatography-coupled mass spectrometry (LC–MS); settings: 2 µM
[16] = The drug is tested on WLS-086 corresponding to human gut metagenome with ENA study accession number: PRJEB37062 and ENA sample accession number: ERS12561752 for biotransformation under anaerobic condition. The drug concentrations were measured over 9 timepoints collected between 0 and 24 hours of incubation by liquid-chromatography-coupled mass spectrometry (LC–MS); settings: 2 µM
[17] = human gut metagenome, 24 h, 2 µM; remark: listed apart in the source
[18] = The drug is tested on Z-028 corresponding to mouse gut metagenome with ENA study accession number: PRJEB37062 and ENA sample accession number: ERS12561827 for biotransformation under anaerobic condition. The drug concentrations were measured over 9 timepoints collected between 0 and 24 hours of incubation by liquid-chromatography-coupled mass spectrometry (LC–MS); settings: 2 µM
[19] = The drug is tested on WLS-220 corresponding to human gut metagenome with ENA study accession number: PRJEB37062 and ENA sample accession number: ERS12561769 for biotransformation under anaerobic condition. The drug concentrations were measured over 9 timepoints collected between 0 and 24 hours of incubation by liquid-chromatography-coupled mass spectrometry (LC–MS); settings: 2 µM
[20] = human gut metagenome, 24 h, 2 µM; remark: listed apart in the source
Also: call rule not given here.

With `CC(NC(C)(C)C)C(=O)c1cccc(Cl)c1` (stereo not given) [BUPROPION] as the molecule, how does the “Bacterial Biotransformation” value [1] read?
The value was “Compound NOT metabolized”.

And the “Bacterial Biotransformation” value [2]?
Its value is “Compound NOT metabolized”.

And the “Bacterial Biotransformation” value [3]?
The value was “Compound NOT metabolized”.

And the “Bacterial Biotransformation” value [4]?
The value was “Compound NOT metabolized”.

And the “Bacterial Biotransformation” value [5]?
Its value is “Compound NOT metabolized”.

And the “Bacterial Biotransformation” value [6]?
The value was “Compound NOT metabolized”.

And the “Bacterial Biotransformation” value [7]?
Its value is “Compound NOT metabolized”.

What about the “Bacterial Biotransformation” value [8] of the same molecule?
Its value is “Compound NOT metabolized”.

What about the “Bacterial Biotransformation” value [9] of the same molecule?
Its value is “Compound NOT metabolized”.

And the “Bacterial Biotransformation” value [10]?
Its value is “Compound NOT metabolized”.

What about the “Bacterial Biotransformation” value [11] of the same molecule?
Its value is “Compound NOT metabolized”.

And the “Bacterial Biotransformation” value [12]?
Its value is “Compound NOT metabolized”.

And the “Bacterial Biotransformation” value [13]?
The value was “Compound NOT metabolized”.

What about the “Bacterial Biotransformation” value [14] of the same molecule?
Its value is “Compound NOT metabolized”.

And the “Bacterial Biotransformation” value [15]?
The value was “Compound metabolized”.

And the “Bacterial Biotransformation” value [16]?
Its value is “Compound NOT metabolized”.

What about the “Bacterial Biotransformation” value [17] of the same molecule?
Its value is “Compound NOT metabolized”.

What about the “Bacterial Biotransformation” value [18] of the same molecule?
Its value is “Compound NOT metabolized”.

What about the “Bacterial Biotransformation” value [19] of the same molecule?
The value was “Compound NOT metabolized”.

What about the “Bacterial Biotransformation” value [20] of the same molecule?
The value was “Compound NOT metabolized”.

Which results are given for `C[N+]12CCC(CC1)C(OC(=O)C(O)(c1ccccc1)c1ccccc1)C2.[Br-]` (stereo not given) [CLIDINIUM BROMIDE]?
Bacterial Biotransformation [1]: Compound NOT metabolized; Bacterial Biotransformation [2]: Compound NOT metabolized; Bacterial Biotransformation [3]: Compound NOT metabolized; Bacterial Biotransformation [4]: Compound NOT metabolized; Bacterial Biotransformation [5]: Compound NOT metabolized; Bacterial Biotransformation [6]: Compound metabolized; Bacterial Biotransformation [7]: Compound metabolized; Bacterial Biotransformation [8]: Compound metabolized; Bacterial Biotransformation [9]: Compound NOT metabolized; Bacterial Biotransformation [10]: Compound metabolized; Bacterial Biotransformation [11]: Compound metabolized; Bacterial Biotransformation [12]: Compound NOT metabolized; Bacterial Biotransformation [13]: Compound metabolized; Bacterial Biotransformation [14]: Compound NOT metabolized; Bacterial Biotransformation [15]: Compound metabolized; Bacterial Biotransformation [16]: Compound metabolized; Bacterial Biotransformation [17]: Compound NOT metabolized; Bacterial Biotransformation [18]: Compound NOT metabolized; Bacterial Biotransformation [19]: Compound NOT metabolized; Bacterial Biotransformation [20]: Compound metabolized

With `CCCN1C[C@H](CSC)C[C@@H]2c3cccc4[nH]cc(c34)C[C@H]21.CS(=O)(=O)O` [PERGOLIDE MESYLATE] as the molecule, how does the “Bacterial Biotransformation” value [1] read?
Its value is “Compound NOT metabolized”.

What about the “Bacterial Biotransformation” value [2] of the same molecule?
The value was “Compound NOT metabolized”.

What about the “Bacterial Biotransformation” value [3] of the same molecule?
The value was “Compound NOT metabolized”.

And the “Bacterial Biotransformation” value [4]?
The value was “Compound NOT metabolized”.

What about the “Bacterial Biotransformation” value [5] of the same molecule?
The value was “Compound NOT metabolized”.

And the “Bacterial Biotransformation” value [6]?
The value was “Compound NOT metabolized”.

What about the “Bacterial Biotransformation” value [7] of the same molecule?
The value was “Compound NOT metabolized”.

What about the “Bacterial Biotransformation” value [8] of the same molecule?
The value was “Compound NOT metabolized”.

What about the “Bacterial Biotransformation” value [9] of the same molecule?
Its value is “Compound metabolized”.

And the “Bacterial Biotransformation” value [10]?
Its value is “Compound NOT metabolized”.

What about the “Bacterial Biotransformation” value [11] of the same molecule?
The value was “Compound NOT metabolized”.

And the “Bacterial Biotransformation” value [12]?
The value was “Compound NOT metabolized”.

What about the “Bacterial Biotransformation” value [13] of the same molecule?
Its value is “Compound NOT metabolized”.

What about the “Bacterial Biotransformation” value [14] of the same molecule?
Its value is “Compound NOT metabolized”.

What about the “Bacterial Biotransformation” value [15] of the same molecule?
The value was “Compound NOT metabolized”.

And the “Bacterial Biotransformation” value [16]?
Its value is “Compound metabolized”.

And the “Bacterial Biotransformation” value [17]?
Its value is “Compound NOT metabolized”.

And the “Bacterial Biotransformation” value [18]?
The value was “Compound NOT metabolized”.

What about the “Bacterial Biotransformation” value [19] of the same molecule?
Its value is “Compound NOT metabolized”.

What about the “Bacterial Biotransformation” value [20] of the same molecule?
Its value is “Compound NOT metabolized”.

Which “Bacterial Biotransformation” value [1] does the source give for `CCOC(=O)C1=C[C@]2(CC)CCCN3CCc4c(n1c1ccccc41)[C@@H]32` [VINPOCETINE] here?
The value was “Compound metabolized”.

What about the “Bacterial Biotransformation” value [2] of the same molecule?
The value was “Compound NOT metabolized”.

And the “Bacterial Biotransformation” value [3]?
Its value is “Compound NOT metabolized”.

What about the “Bacterial Biotransformation” value [4] of the same molecule?
Its value is “Compound metabolized”.

What about the “Bacterial Biotransformation” value [5] of the same molecule?
Its value is “Compound metabolized”.

What about the “Bacterial Biotransformation” value [6] of the same molecule?
Its value is “Compound metabolized”.

And the “Bacterial Biotransformation” value [7]?
The value was “Compound metabolized”.

And the “Bacterial Biotransformation” value [8]?
The value was “Compound metabolized”.

And the “Bacterial Biotransformation” value [9]?
The value was “Compound NOT metabolized”.

What about the “Bacterial Biotransformation” value [10] of the same molecule?
Its value is “Compound metabolized”.

And the “Bacterial Biotransformation” value [11]?
The value was “Compound metabolized”.

And the “Bacterial Biotransformation” value [12]?
Its value is “Compound metabolized”.

And the “Bacterial Biotransformation” value [13]?
Its value is “Compound metabolized”.

And the “Bacterial Biotransformation” value [14]?
The value was “Compound NOT metabolized”.

And the “Bacterial Biotransformation” value [15]?
The value was “Compound metabolized”.

What about the “Bacterial Biotransformation” value [16] of the same molecule?
The value was “Compound metabolized”.

And the “Bacterial Biotransformation” value [17]?
Its value is “Compound metabolized”.

What about the “Bacterial Biotransformation” value [18] of the same molecule?
The value was “Compound NOT metabolized”.

And the “Bacterial Biotransformation” value [19]?
The value was “Compound NOT metabolized”.

And the “Bacterial Biotransformation” value [20]?
Its value is “Compound metabolized”.

With `CCN(CC)C(=O)C1(c2ccccc2)CC1CN` (stereo not given) as the molecule, how does the “Bacterial Biotransformation” value [1] read?
Its value is “Compound NOT metabolized”.

And the “Bacterial Biotransformation” value [2]?
Its value is “Compound NOT metabolized”.

What about the “Bacterial Biotransformation” value [3] of the same molecule?
The value was “Compound NOT metabolized”.

What about the “Bacterial Biotransformation” value [4] of the same molecule?
Its value is “Compound NOT metabolized”.

And the “Bacterial Biotransformation” value [5]?
Its value is “Compound NOT metabolized”.

And the “Bacterial Biotransformation” value [6]?
The value was “Compound NOT metabolized”.

What about the “Bacterial Biotransformation” value [7] of the same molecule?
Its value is “Compound NOT metabolized”.

What about the “Bacterial Biotransformation” value [8] of the same molecule?
The value was “Compound NOT metabolized”.

And the “Bacterial Biotransformation” value [9]?
Its value is “Compound NOT metabolized”.

And the “Bacterial Biotransformation” value [10]?
Its value is “Compound NOT metabolized”.

What about the “Bacterial Biotransformation” value [11] of the same molecule?
Its value is “Compound NOT metabolized”.

What about the “Bacterial Biotransformation” value [12] of the same molecule?
Its value is “Compound NOT metabolized”.

And the “Bacterial Biotransformation” value [13]?
The value was “Compound NOT metabolized”.

And the “Bacterial Biotransformation” value [14]?
The value was “Compound NOT metabolized”.

And the “Bacterial Biotransformation” value [15]?
Its value is “Compound NOT metabolized”.

And the “Bacterial Biotransformation” value [16]?
Its value is “Compound NOT metabolized”.

What about the “Bacterial Biotransformation” value [17] of the same molecule?
The value was “Compound NOT metabolized”.

What about the “Bacterial Biotransformation” value [18] of the same molecule?
Its value is “Compound NOT metabolized”.

What about the “Bacterial Biotransformation” value [19] of the same molecule?
Its value is “Compound NOT metabolized”.

And the “Bacterial Biotransformation” value [20]?
Its value is “Compound NOT metabolized”.
